Assay results as given in paper PMC10733463, “Berberine-microbiota interplay: orchestrating gut health through modulation of the gut microbiota and metabolic transformation into bioactive metabolites” (Frontiers in Pharmacology, 2023).

Assays:
CD3+ T-cells = test: CD3 immunohistochemistry of duodenal tissue; type: in vivo, Ross 308 broiler chickens; settings: duodenum, 21 days
From the text: The study was undertaken following the guidelines of the ethics committee of the Faculty of Veterinary Medicine and Bioscience Engineering, Ghent University, in accordance with the EU Directive 2010/63/EU. […] They were allotted into 4 groups, with three replicate pens per group each housing 8 chickens. The animals were not vaccinated. Water and commercial starter feed (day 1-12, FARM 1 Mash, Country's Best, […], Belgium) or grower (day 13-21, FARM 2 mash, Country's Best, […], Belgium) were provided ad libitum. […] At day 21, 4 birds per pen were weighted then euthanized by sodium pentobarbital injection for sampling. […] Additionally, ileal and caecal content samples were collected and stored at -20°C for berberine and berberine-derived metabolite quantification. […] Slides for immunohistochemical staining for CD3^+ T-cells were automatically deparaffinized (Shandon […]-Gemini) before antigen retrieval with a pressure cooker in citrate buffer (10 mM, pH 6). Endogenous peroxidase activity was blocked by treating the slides with peroxidase blocking reagent ([…], Dako, Glostrup, Denmark) for 5 min. The presence of T-cells (CD3-positive cell abundance) in duodenal tissue from 21-day old chickens was evaluated using polyclonal primary antibodies against CD3 ([…], Dako, 1:100 dilution, 30 min at room temperature), followed by incubation with a secondary labelled polymer-HRP anti-rabbit antibody (Envision + System-HRP (DAB) ([…]), 30 min at room temperature). Slides were evaluated using the computer-based image analysis program, LAS V4.1. The CD3^+ area percentage in the duodenal tissue was quantified using four representative fields of view per intestinal section (10x objective).

ileal microbiota = test: 16S rRNA gene sequencing, microbiota composition in the ileum; type: in vivo, Ross 308 broiler chickens
Caco-2 cells = test: Cell viability assay (neutral red uptake), Caco-2; type: cell-based, human; settings: 0.1 µg berberine/mL medium
Description: Caco-2 cells (human intestinal epithelial cells) were cultured in MEM (Gibco, Paisley, United Kingdom) supplemented with 10% Fetal Bovine Serum (FBS), 1% L-glutamine (Gibco), 1% MEM NEAA (Gibco) and 1% penicillin/streptomycin (P/S) (Gibco). T84 cells (human intestinal epithelial cells) were cultured in 1:1 DMEM/F12 (Gibco) supplemented with 10% FBS, 1% L-glutamine and 1% P/S (37°C, 5% CO2). The neutral red uptake assay was employed to evaluate the potential cytotoxicity of berberine ([Repetto et al., 2008]). Briefly, Caco-2 and T84 were seeded at 2 × 10^5 cells/well and 5 × 10^4 cells/well respectively in 96-well plates (Greiner Bio-one, Frickenhausen, Germany) and cultivated for 24 h in antibiotic-free medium (treatment medium) for attachment. […] A 10-fold dilution of sodium dodecyl sulfate (Sigma-Aldrich), ranging from 10 mg/mL to 10^−6 mg/mL was used a positive control. Cells were washed with 200 µL pre-warmed HBSS(+) (Gibco) and then treated with 150 µL of Neutral Red medium, consisting of 1:80 Neutral Red solution 0.33% (Sigma-Aldrich)/treatment medium for 3 h. Cells were washed in 200 µL HBSS(+) and treated with 100 µL of Neutral Red Desorb solution, consisting of 1% glacial acetic acid (Merck, Darmstadt, Germany), 50% ethanol (95%, Chem-Lab, Zedelgem, Belgium) and 49% deionized water.

[1] = 0.1 g berberine/kg feed vs normal diet, 21 days, LinDA-normalized abundance
[2] = 0.1 g berberine/kg feed, 21 days
[3] = 0.5 g berberine/kg feed vs normal diet, 21 days, LinDA-normalized abundance
[4] = 0.5 g berberine/kg feed, 21 days
[5] = 1 g berberine/kg feed vs normal diet, 21 days, LinDA-normalized abundance

With COc1ccc2cc3[n+](cc2c1OC)CCc1cc2c(cc1-3)OCO2 [Berberine, Berberine chloride] the “CD3+ area percentage” value (CD3+ T-cells; 0.1 g berberine/kg feed) was 8.39 ± 1.05, the “CD3+ area percentage” value (CD3+ T-cells; 0.5 g berberine/kg feed) was 8.89 ± 2.09 and the “CD3+ area percentage” value (CD3+ T-cells; 1 g berberine/kg feed) was 7.11 ± 2.18. The “L2 FC Cronobacter, 0.1 vs 0” value (ileal microbiota; [1]) was 0.38, the “L2 FC Curtobacterium, 0.1 vs 0” value (ileal microbiota; [1]) was -0.49 and the “L2 FC Faecalibacterium, 0.1 vs 0” value (ileal microbiota; [1]) was 1.89. For the same compound, the “L2 FC Family_ Peptostreptococcaceae, 0.1 vs 0” value (ileal microbiota; [1]) was 2.07, the “L2 FC Glutamicibacter, 0.1 vs 0” value (ileal microbiota; [1]) was 0.33 and the “L2 FC Lachnoclostridium 5, 0.1 vs 0” value (ileal microbiota; [1]) was 0.40. The “L2 FC Ralstonia, 0.1 vs 0” value (ileal microbiota; [1]) was -0.96, the “L2 FC Romboutsia, 0.1 vs 0” value (ileal microbiota; [1]) was 2.23 and the “L2 FC Serratia, 0.1 vs 0” value (ileal microbiota; [1]) was 0.03. The “L2 FC Tyzzerella, 0.1 vs 0” value (ileal microbiota; [1]) was 0.06, the “L2 FC uncultured genus of Mollicutes RF39, 0.1 vs 0” value (ileal microbiota; [1]) was 0.63 and the “L2 FC uncultured genus of Peptostreptococcaceae, 0.1 vs 0” value (ileal microbiota; [1]) was 1.99. The “Mean relative abundance (%) Cronobacter” value (ileal microbiota; [2]) was 0.00%, the “Mean relative abundance (%) Curtobacterium” value (ileal microbiota; [2]) was 0.01% and the “Mean relative abundance (%) Faecalibacterium” value (ileal microbiota; [2]) was 0.02%. The “Mean relative abundance (%) Family_ Peptostreptococcaceae” value (ileal microbiota; [2]) was 0.37%, the “Mean relative abundance (%) Glutamicibacter” value (ileal microbiota; [2]) was 0.01% and the “Mean relative abundance (%) Lachnoclostridium 5” value (ileal microbiota; [2]) was 0.00%. For the same compound, the “Mean relative abundance (%) Ralstonia” value (ileal microbiota; [2]) was 0.04%, the “Mean relative abundance (%) Romboutsia” value (ileal microbiota; [2]) was 0.24% and the “Mean relative abundance (%) Serratia” value (ileal microbiota; [2]) was 0.00%. The “Mean relative abundance (%) Tyzzerella” value (ileal microbiota; [2]) was 0.00%, the “Mean relative abundance (%) uncultured genus of Mollicutes RF39” value (ileal microbiota; [2]) was 0.00% and the “Mean relative abundance (%) uncultured genus of Peptostreptococcaceae” value (ileal microbiota; [2]) was 38.50%. For the same compound, the “Mean relative abundance of Lachnospiraceae” value (ileal microbiota; [2]) was 2.54%, the “Mean relative abundance of Peptostreptococcaceae” value (ileal microbiota; [2]) was 39.1% and the “Mean relative abundance of Ruminococcaceae” value (ileal microbiota; [2]) was 1.35%. The “L2FC of LinDA-normalized abundance of Lachnospiraceae” value (ileal microbiota; 0.1 vs 0 g berberine/kg feed) was -0.49, the “L2FC of LinDA-normalized abundance of Peptostreptococcaceae” value (ileal microbiota; 0.1 vs 0 g berberine/kg feed) was 1.55 and the “L2FC of LinDA-normalized abundance of Ruminococcaceae” value (ileal microbiota; 0.1 vs 0 g berberine/kg feed) was 0.41. For the same compound, the “L2 FC Cronobacter, 0.5 vs 0” value (ileal microbiota; [3]) was -0.95, the “L2 FC Curtobacterium, 0.5 vs 0” value (ileal microbiota; [3]) was -1.50 and the “L2 FC Faecalibacterium, 0.5 vs 0” value (ileal microbiota; [3]) was 1.01. For the same compound, the “L2 FC Family_ Peptostreptococcaceae, 0.5 vs 0” value (ileal microbiota; [3]) was -0.52, the “L2 FC Glutamicibacter, 0.5 vs 0” value (ileal microbiota; [3]) was -0.49 and the “L2 FC Lachnoclostridium 5, 0.5 vs 0” value (ileal microbiota; [3]) was -0.09. For the same compound, the “L2 FC Ralstonia, 0.5 vs 0” value (ileal microbiota; [3]) was -1.95, the “L2 FC Romboutsia, 0.5 vs 0” value (ileal microbiota; [3]) was -0.07 and the “L2 FC Serratia, 0.5 vs 0” value (ileal microbiota; [3]) was -0.80. For the same compound, the “L2 FC Tyzzerella, 0.5 vs 0” value (ileal microbiota; [3]) was -0.72, the “L2 FC uncultured genus of Mollicutes RF39, 0.5 vs 0” value (ileal microbiota; [3]) was 0.65 and the “L2 FC uncultured genus of Peptostreptococcaceae, 0.5 vs 0” value (ileal microbiota; [3]) was -0.24. The “Mean relative abundance (%) Cronobacter” value (ileal microbiota; [4]) was 0.00%, the “Mean relative abundance (%) Curtobacterium” value (ileal microbiota; [4]) was 0.02% and the “Mean relative abundance (%) Faecalibacterium” value (ileal microbiota; [4]) was 0.02%. For the same compound, the “Mean relative abundance (%) Family_ Peptostreptococcaceae” value (ileal microbiota; [4]) was 0.15%, the “Mean relative abundance (%) Glutamicibacter” value (ileal microbiota; [4]) was 0.01% and the “Mean relative abundance (%) Lachnoclostridium 5” value (ileal microbiota; [4]) was 0.02%. The “Mean relative abundance (%) Ralstonia” value (ileal microbiota; [4]) was 0.05%, the “Mean relative abundance (%) Romboutsia” value (ileal microbiota; [4]) was 0.13% and the “Mean relative abundance (%) Serratia” value (ileal microbiota; [4]) was 0.00%. The “Mean relative abundance (%) Tyzzerella” value (ileal microbiota; [4]) was 0.00%, the “Mean relative abundance (%) uncultured genus of Mollicutes RF39” value (ileal microbiota; [4]) was 0.02% and the “Mean relative abundance (%) uncultured genus of Peptostreptococcaceae” value (ileal microbiota; [4]) was 24.63%. The “Mean relative abundance of Lachnospiraceae” value (ileal microbiota; [4]) was 14.77%, the “Mean relative abundance of Peptostreptococcaceae” value (ileal microbiota; [4]) was 24.91% and the “Mean relative abundance of Ruminococcaceae” value (ileal microbiota; [4]) was 6.11%. For the same compound, the “L2FC of LinDA-normalized abundance of Lachnospiraceae” value (ileal microbiota; 0.5 vs 0 g berberine/kg feed) was -0.17, the “L2FC of LinDA-normalized abundance of Peptostreptococcaceae” value (ileal microbiota; 0.5 vs 0 g berberine/kg feed) was -0.50 and the “L2FC of LinDA-normalized abundance of Ruminococcaceae” value (ileal microbiota; 0.5 vs 0 g berberine/kg feed) was 0.24. The “L2 FC Cronobacter, 1 vs 0” value (ileal microbiota; [5]) was -3.64, the “L2 FC Curtobacterium, 1 vs 0” value (ileal microbiota; [5]) was -2.66 and the “L2 FC Faecalibacterium, 1 vs 0” value (ileal microbiota; [5]) was -2.86. The “L2 FC Family_ Peptostreptococcaceae, 1 vs 0” value (ileal microbiota; [5]) was -7.51, the “L2 FC Glutamicibacter, 1 vs 0” value (ileal microbiota; [5]) was -2.76 and the “L2 FC Lachnoclostridium 5, 1 vs 0” value (ileal microbiota; [5]) was -3.40. The “L2 FC Ralstonia, 1 vs 0” value (ileal microbiota; [5]) was -5.90, the “L2 FC Romboutsia, 1 vs 0” value (ileal microbiota; [5]) was -6.95 and the “L2 FC Serratia, 1 vs 0” value (ileal microbiota; [5]) was -3.49. The “L2 FC Tyzzerella, 1 vs 0” value (ileal microbiota; [5]) was -2.59, the “L2 FC uncultured genus of Mollicutes RF39, 1 vs 0” value (ileal microbiota; [5]) was -3.09 and the “L2 FC uncultured genus of Peptostreptococcaceae, 1 vs 0” value (ileal microbiota; [5]) was -9.51. For the same compound, the “Mean relative abundance (%) Cronobacter” value (ileal microbiota; 1 g berberine/kg feed, 21 days) was 0.00%, the “Mean relative abundance (%) Curtobacterium” value (ileal microbiota; 1 g berberine/kg feed, 21 days) was 0.03% and the “Mean relative abundance (%) Faecalibacterium” value (ileal microbiota; 1 g berberine/kg feed, 21 days) was 0.01%. For the same compound, the “Mean relative abundance (%) Family_ Peptostreptococcaceae” value (ileal microbiota; 1 g berberine/kg feed, 21 days) was 0.01%, the “Mean relative abundance (%) Glutamicibacter” value (ileal microbiota; 1 g berberine/kg feed, 21 days) was 0.01% and the “Mean relative abundance (%) Lachnoclostridium 5” value (ileal microbiota; 1 g berberine/kg feed, 21 days) was 0.00%. The “Mean relative abundance (%) Ralstonia” value (ileal microbiota; 1 g berberine/kg feed, 21 days) was 0.37%, the “Mean relative abundance (%) Romboutsia” value (ileal microbiota; 1 g berberine/kg feed, 21 days) was 0.01% and the “Mean relative abundance (%) Serratia” value (ileal microbiota; 1 g berberine/kg feed, 21 days) was 0.00%. For the same compound, the “Mean relative abundance (%) Tyzzerella” value (ileal microbiota; 1 g berberine/kg feed, 21 days) was 0.01%, the “Mean relative abundance (%) uncultured genus of Mollicutes RF39” value (ileal microbiota; 1 g berberine/kg feed, 21 days) was 0.00% and the “Mean relative abundance (%) uncultured genus of Peptostreptococcaceae” value (ileal microbiota; 1 g berberine/kg feed, 21 days) was 0.72%. The “Mean relative abundance of Lachnospiraceae” value (ileal microbiota; 1 g berberine/kg feed, 21 days) was 26.87%, the “Mean relative abundance of Peptostreptococcaceae” value (ileal microbiota; 1 g berberine/kg feed, 21 days) was 0.73% and the “Mean relative abundance of Ruminococcaceae” value (ileal microbiota; 1 g berberine/kg feed, 21 days) was 8.08%. For the same compound, the “L2FC of LinDA-normalized abundance of Lachnospiraceae” value (ileal microbiota; 1 vs 0 g berberine/kg feed) was 2.99, the “L2FC of LinDA-normalized abundance of Peptostreptococcaceae” value (ileal microbiota; 1 vs 0 g berberine/kg feed) was -6.91 and the “L2FC of LinDA-normalized abundance of Ruminococcaceae” value (ileal microbiota; 1 vs 0 g berberine/kg feed) was 3.41. The “Estimated microbial diversity (Shannon index)” value (ileal microbiota; highest concentration (1 g/kg feed), p = 0.045) was “significantly increased”, the “Abundance of phylum Tenericutes” value (ileal microbiota; lowest concentration (0.1 g/kg feed)) was “increase” and the “Cytotoxicity (Neutral Red Uptake)” value (Caco-2 cells) was “considered safe”.
